In PMC4930285 (Biomolecules & Therapeutics, 2016):

Experiments:
[1] = biological target: T1, α7 nicotinic acetylcholine receptor (α7 nAChR) (Homo sapiens, UniProt P36544); assay: two-electrode voltage clamp in Xenopus oocytes; format: cell-based
[2] = biological target: T1, α7 nicotinic acetylcholine receptor (α7 nAChR); assay: two-electrode voltage clamp in Xenopus oocytes; format: cell-based; remark: listed apart in the source

T1 sequence (P36544 23-502): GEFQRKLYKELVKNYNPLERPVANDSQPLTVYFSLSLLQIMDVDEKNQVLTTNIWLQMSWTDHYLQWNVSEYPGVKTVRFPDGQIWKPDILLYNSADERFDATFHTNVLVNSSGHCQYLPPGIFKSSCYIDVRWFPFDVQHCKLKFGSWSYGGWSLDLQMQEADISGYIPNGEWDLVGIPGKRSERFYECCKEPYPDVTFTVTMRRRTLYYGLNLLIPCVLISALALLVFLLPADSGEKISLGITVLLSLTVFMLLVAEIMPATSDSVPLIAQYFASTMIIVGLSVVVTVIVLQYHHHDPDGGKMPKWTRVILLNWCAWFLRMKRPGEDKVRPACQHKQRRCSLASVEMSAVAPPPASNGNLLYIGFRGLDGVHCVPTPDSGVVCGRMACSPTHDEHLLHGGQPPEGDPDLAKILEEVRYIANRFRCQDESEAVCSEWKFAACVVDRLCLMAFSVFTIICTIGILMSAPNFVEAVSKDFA

| Compound | EC50 [1] [µM] | IC50 [2] [µM] |
| --- | --- | --- |
| O=c1c(O)c(-c2ccc(O)c(O)c2)oc2cc(O)cc(O)c12 [Que, quercetin] | 35.1 ± 3.8 | – |
| C[C@@H]1O[C@@H](OC[C@H]2O[C@@H](Oc3c(-c4ccc(O)c(O)c4)oc4cc(O)cc(O)c4c3=O)[C@H](O)[C@@H](O)[C@@H]2O)[C@H](O)[C@H](O)[C@H]1O [Rutin, quercetin-3-O-rutinoside] | – | 70.4 ± 3.6 |
